Reference: US8129355B2, “Ketone ligands for modulating the expression of exogenous genes via an ecdysone receptor complex” (priority 2002, dated 2012)

Target: T1, GAL4 DBD (1-147)-CfEcR(DEF)/VP16AD-βRXREF-LmUSPEF (Choristoneura fumiferana, UniProt O77240)
T1 sequence (O77240 191-513): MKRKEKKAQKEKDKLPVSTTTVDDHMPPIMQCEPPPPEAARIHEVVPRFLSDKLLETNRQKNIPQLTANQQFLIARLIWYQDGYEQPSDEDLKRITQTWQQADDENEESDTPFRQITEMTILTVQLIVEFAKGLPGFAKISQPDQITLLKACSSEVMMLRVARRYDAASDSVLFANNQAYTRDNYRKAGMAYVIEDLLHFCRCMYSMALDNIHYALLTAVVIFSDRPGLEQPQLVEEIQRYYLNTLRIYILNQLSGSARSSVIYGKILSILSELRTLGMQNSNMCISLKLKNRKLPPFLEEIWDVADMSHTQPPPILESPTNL
T1 sequence (P28702 296-455 partner limits assumed): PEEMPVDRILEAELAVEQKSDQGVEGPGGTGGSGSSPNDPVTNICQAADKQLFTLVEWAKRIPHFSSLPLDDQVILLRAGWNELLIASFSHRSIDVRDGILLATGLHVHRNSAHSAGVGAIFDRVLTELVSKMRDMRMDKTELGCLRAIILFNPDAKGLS
Experiment: 27-63 assay: luciferase reporter gene expression in stable CHO cell clone 27-63
Conditions: for Fold Induction Average, 27-63 Assay (33 μM): single dose 33 μM, RLU ligand treated / RLU DMSO treated cells; for 27-63 Rel Max FI: maximum fold induction at any concentration relative to that of GS-E ligand; for CC50: read-out: 27-63 LC50, average, dose response, three-parameter logistic model; for fold induction at 33 µM: CHO, read-out: Fold Induction Average, 27-63 Assay (33 μM)
Procedure, shortened: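 CHO clone stably expressing GAL4 DBD-CfEcR(DEF) and VP16AD-HsRXRβ/LmUSP EF chimera plus a 5XGAL4RE-luciferase reporter; ligands given at 8 concentrations (33 μM to 0.01 μM), luminescence read 48 h after treatment. Fold induction versus DMSO cells; BC50 from three-parameter logistic fit.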

Row | Structure (SMILES) | Fold Induction Average, 27-63 Assay (33 μM) | 27-63 Rel Max FI | CC50 | fold induction at 33 µM
1 | CCOC(=O)C(=O)N1CCCC(NC(=O)c2cccc(OC)c2C)(C(=O)c2cc(C)cc(C)c2)C1 (racemic) [Example 154] | 2 | – | – | –
2 | COC(=O)CN1CCCC(NC(=O)c2cccc(OC)c2C)(C(=O)c2cc(C)cc(C)c2)C1 (racemic) [Example 156] | 3 | 0.00 | > 33 µM | –
3 | COc1cccc(C(=O)C2(NC(=O)c3cccc(OC)c3C)CCCCC2)c1 [Example 4] | – | 1.06 | 4.28 µM | –
4 | COc1cccc(C(=O)NC2(C(=O)c3cccc(C)c3)CCCCC2)c1C [Example 7] | – | 0.77 | 3.52 µM | –
5 | COc1cccc(C(=O)NC2(C(=O)c3cc(C)cc(C)c3)CCCC2)c1C [Example 10] | – | 0.86 | 1.91 µM | –
6 | COc1cccc(C(=O)NC2(C(=O)c3cc(C)cc(C)c3)CCCCC2)c1C [Example 11] | – | 0.97 | 1.43 µM | –
7 | COc1cccc(C(=O)NC(C)(Cc2ccccc2)C(=O)c2cc(C)cc(C)c2)c1C (centres unmarked) [Example 12] | – | 0.00 | > 33 µM | –
8 | COc1cccc(C(=O)NC2(C(=O)c3cc(C)cc(C)c3)CC2)c1C [Example 13] | – | 0.09 | > 33 µM | –
9 | COc1cccc(C(=O)NC2(C(=O)c3cc(C)cc(C)c3)CCC2)c1C [Example 14] | – | 0.89 | ~10 µM | –
10 | COc1cccc(C(=O)NC2(C(=O)c3ccc(C)cc3)CCCCC2)c1C [Example 15] | – | 0.87 | 6.18 µM | –
11 | COc1cccc(C(=O)NC2(C(=O)c3ccc(F)c(C)c3)CCCC2)c1C [Example 17] | – | 0.40 | ~5.5 µM | –
12 | COc1cccc(C(=O)NC2(C(=O)c3ccc(F)c(C)c3)CCCCC2)c1C [Example 18] | – | 0.53 | 3.27 µM | –
13 | COc1cccc(C(=O)NC(C)(C(=O)c2cc(C)cc(C)c2)C(C)C)c1C (centres unmarked) [Example 20] | – | 0.71 | 2.56 µM | –
14 | CCc1c(OC)cccc1C(=O)NC1(C(=O)c2ccccc2)CCCC1 [Example 21] | – | 0.09 | > 33 µM | –
15 | CCc1c(C(=O)NC2(C(=O)c3ccccc3)CCCC2)ccc2c1OCCO2 [Example 22] | – | 0.60 | 10.8 µM | –
16 | COc1cccc(C(=O)NC2(C(=O)c3cccc(C)c3)CCOCC2)c1C [Example 25] | – | 0.00 | > 33 µM | –
17 | COc1cccc(C(=O)NC2(C(=O)c3cccc(C)c3)CCSCC2)c1C [Example 26] | – | 0.83 | 11 µM | –
18 | COc1cccc(C(=O)NC2(C(=O)c3cc(C)cc(C)c3)CCOCC2)c1C [Example 27] | – | 0.96 | 10 µM | 2740
19 | COc1cccc(C(=O)NC2(C(=O)c3cc(C)cc(C)c3)CCSCC2)c1C [Example 28] | – | 0.85 | 1.8 µM | –
20 | COc1cccc(C(=O)NC2(C(=O)c3cc(C)cc(C)c3)CCC3(CC2)OCCO3)c1C [Example 29] | – | 0.00 | > 33 µM | –
21 | COc1ccccc1C(=O)C(C)(NC(=O)c1cccc(OC)c1C)C(C)C (centres unmarked) [Example 30] | – | 0.03 | > 33 µM | –

Row | Structure (SMILES) | Fold Induction Average, 27-63 Assay (33 μM) | 27-63 Rel Max FI | CC50 | fold induction at 33 µM
22 | COc1cccc(C(=O)NC(C)(C(=O)c2cccc(C)c2)C(C)C)c1C (centres unmarked) [Example 31] | – | 0.61 | ~15 µM | –
23 | COc1cccc(C(=O)C(C)(NC(=O)c2cccc(OC)c2C)C(C)C)c1 (centres unmarked) [Example 32] | – | 0.01 | > 33 µM | –
24 | COc1cccc(C(=O)NC(C)(C(=O)c2ccc(C)cc2)C(C)C)c1C (centres unmarked) [Example 33] | – | 0.00 | > 33 µM | –
25 | COc1cccc(C(=O)NC(C)(C(=O)c2ccccc2)C(C)C)c1C (centres unmarked) [Example 34] | – | 0.00 | > 33 µM | –
26 | CCC(CC)(NC(=O)c1cccc(OC)c1C)C(=O)c1ccccc1OC [Example 37] | – | 0.81 | ~18 µM | –
27 | CCC(CC)(NC(=O)c1cccc(OC)c1C)C(=O)c1ccc(F)cc1 [Example 38] | – | 0.00 | > 33 µM | –
28 | COc1ccccc1C(=O)C1(NC(=O)c2cccc(OC)c2C)CCCC1 [Example 40] | – | 0.67 | 6.61 µM | –
29 | COc1cccc(C(=O)NC2(C(=O)c3ccc(F)cc3)CCCC2)c1C [Example 42] | – | 0.01 | > 33 µM | –
30 | COc1cccc(C(=O)NC2(C(=O)c3ccccc3C)CCCCC2)c1C [Example 44] | – | 0.07 | > 33 µM | –
31 | COc1ccccc1C(=O)C1(NC(=O)c2cccc(OC)c2C)CCCCC1 [Example 45] | – | 0.71 | 1.03 µM | –
32 | COc1ccc(C(=O)C2(NC(=O)c3cccc(OC)c3C)CCCCC2)cc1 [Example 46] | – | 0.00 | > 33 µM | 5
33 | CCC(CC)(NC(=O)c1cccc(OC)c1C)C(=O)c1cccc(C)c1 [Example 48] | – | 0.11 | > 33 µM | –
34 | CCC(CC)(NC(=O)c1cccc(OC)c1C)C(=O)c1cccc(OC)c1 [Example 49] | – | 0.00 | > 33 µM | –
35 | CCC(CC)(NC(=O)c1cccc(OC)c1C)C(=O)c1ccc(F)c(C)c1 [Example 50] | – | 0.00 | > 33 µM | –
36 | CCC(CC)(NC(=O)c1cccc(OC)c1C)C(=O)c1cc(C)cc(C)c1 [Example 51] | – | 0.54 | 6.23 µM | –
37 | COc1cccc(C(=O)NC(C)(CC(C)C)C(=O)c2cccc(C)c2)c1C (centres unmarked) [Example 52] | – | 0.04 | ~12 µM | –
38 | COc1cccc(C(=O)C(C)(CC(C)C)NC(=O)c2cccc(OC)c2C)c1 (centres unmarked) [Example 53] | – | 0.00 | > 33 µM | –
39 | COc1cccc(C(=O)NC(C)(CC(C)C)C(=O)c2cc(C)cc(C)c2)c1C (centres unmarked) [Example 55] | – | 0.62 | 3.85 µM | –
40 | COc1cccc(C(=O)NC2(C(=O)c3ccc(F)cc3)CCCCC2)c1C [Example 60] | – | 0.35 | ~9 µM | –
41 | COc1cccc(C(=O)NC2(C(=O)c3cc(C)cc(C)c3)CCS(=O)(=O)CC2)c1C [Example 62] | – | 0.04 | ~30 µM | 224
42 | COc1cccc(C(=O)NC(C)(C(=O)c2ccccc2C)C(C)C)c1C (centres unmarked) [Example 63] | – | 0.68 | 27.2 µM | –

Row | Structure (SMILES) | Fold Induction Average, 27-63 Assay (33 μM) | 27-63 Rel Max FI | CC50 | fold induction at 33 µM
43 | COc1ccc(C(=O)C2(NC(=O)c3cccc(OC)c3C)CCCCC2)c(OC)n1 [Example 64] | – | 0.82 | 3.12 µM | –
44 | COc1cc(C(=O)C2(NC(=O)c3cccc(OC)c3C)CCCC2)cc(OC)c1C [Example 65] | – | 0.28 | > 20 µM | –
45 | COc1cc(C(=O)C2(NC(=O)c3cccc(OC)c3C)CCCCC2)cc(OC)c1C [Example 66] | – | 0.76 | 14.5 µM | –
46 | COc1cccc(C(=O)NC2(C(=O)c3cc(F)c(F)c(OC)c3)CCCC2)c1C [Example 67] | – | 0.77 | 6.59 µM | –
47 | COc1cccc(C(=O)NC2(C(=O)c3cc(F)c(F)c(OC)c3)CCCCC2)c1C [Example 68] | – | 0.98 | 3.7 µM | –
48 | COc1cccc(C(=O)NC2(C(=O)c3ccccc3)CCCCC2)c1C [Example 69] | – | 0.84 | 14.4 µM | –
49 | COc1ccccc1C(=O)C1(NC(=O)c2cccc(OC)c2C)CCCCCC1 [Example 70] | – | 0.66 | 3.36 µM | –
50 | COc1cccc(C(=O)NC2(C(=O)c3cc(C)cc(C)c3)CCCCCC2)c1C [Example 71] | – | 0.88 | 2.97 µM | –
51 | COc1ccccc1C(=O)C(C)(NC(=O)c1cccc(OC)c1C)c1ccc(F)cc1 (centres unmarked) [Example 72] | 1 | – | – | –
52 | COc1ccccc1C(=O)C(C)(C)NC(=O)c1cccc(OC)c1C [Example 74] | 9 | – | – | –
53 | COc1cccc(C(=O)NC(C)(C)C(=O)c2cc(C)cc(C)c2)c1C [Example 75] | – | 0.29 | 42 µM | –
54 | COc1cccc(C(=O)NC(C)(C)C(=O)c2ccccc2)c1C [Example 76] | – | 0.00 | > 33 µM | –
55 | CCC(CC)(NC(=O)c1cccc(OC)c1C)C(=O)c1ccc(C)cc1 [Example 77] | – | 0.00 | > 33 µM | –
56 | CCC(CC)(NC(=O)c1cccc(OC)c1C)C(=O)c1ccccc1 [Example 78] | – | 0.41 | 6.54 µM | –
57 | COc1cccc(C(=O)NC2(C(=O)c3ccc(C)cc3)CCCC2)c1C [Example 79] | – | 0.32 | 4.38 µM | –
58 | COc1cccc(C(=O)C(C)(C)NC(=O)c2ccccc2OC)c1 [Example 117] | 1 | – | – | –
59 | CCCCC(=O)C1(NC(=O)c2cccc(OC)c2C)CCCCC1 [Example 120] | – | 0.65 | 9.05 µM | –
60 | O=C(NC1(C(=O)c2ccccc2)CCCC1)c1ccccc1 [Example 139] | – | 0.00 | > 33 µM | –
61 | COc1cccc(C(=O)NC2(C(=O)c3ccccc3)CCCC2)c1 [Example 141] | – | 0.00 | > 33 µM | –
